According to patent US20260167615A1, “COMPOUNDS AND COMPOSITIONS AS GPR52 MODULATORS” (Neurocrine Biosciences, Inc., priority 2022, published 2026):
Like-named read-outs stand apart in the source and are kept apart here.

Biological target: recombinant human GPR52 (Homo sapiens, UniProt Q9Y2T5)
Assay: HTRF cAMP assay, GPR52 activity (Example A)
Assay type: cell-based
Protocol: Compounds of Formula I were assessed for their ability to modulate GPR52 activity. HTRF CAMP assays were performed using a commercially available assay kit (CAMP Gs HiRange HTRF®, CisBio). Controls and compounds were solubilized in DMSO and 62.5 nanoliters of the diluted compounds were transferred into 384-well NBS assay plates via acoustic or precision low-volume dispensing. Compounds were further diluted to 1× with the addition of 20,000 cells per well. Flp-In™—CHO cells that stably express recombinant human GPR52 were used in the assay.
Cells were harvested with cell stripper and resuspended in stimulation buffer. After thirty minutes incubation at room temperature, detection reagents were added to each well. Plates were then incubated for an additional 30 minutes at room temperature. CAMP produced by the cells during the first incubation period competes with d2-labeled CAMP for binding to an anti-cAMP monoclonal antibody labeled with europium cryptate. The measured signal was inversely proportional to the concentration of cAMP produced by the cells and this signal was quantified using a PHERAstar® multi-mode plate reader.
Dose-response curves were generated from the HTRF counts that have been transformed based on a CAMP referenced curve, and then normalized to the positive control. EC50 values were obtained using a nonlinear regression curve-fitting program. […] The Emax (Table 13) is the maximum amount of cAMP (nM) produced by incubation of the cells with 10 μM or 31.6 μM of a test compound. The compound is defined by the top plateau of the sigmoid curve fit. The curve is then normalized to a control compound, in this case 4-(3-(3-fluoro-5-(trifluoromethyl)benzyl)-5-methyl-4,5-dihydro-1H-1,2,4-triazol-1-yl)-2-methylbenzamide (Tokumaru, K., et al., “Design, synthesis, and pharmacological evaluation of 4-azolyl-benzamide derivatives as novel GPR52 agonists”, Bioorganic & Medicinal Chemistry, Volume 25, Issue 12, June 2017, pages 3098-3115), and expressed as a percentage of the Emax of that control compound.

[1] = average EC50 (n=1 to 15), Flp-In-CHO cells stably expressing recombinant human GPR52, cAMP HTRF, read-out: EC50 (N=)
[2] = maximum cAMP at 10 μM or 31.6 μM test compound, as percentage of Emax of control compound 4-(3-(3-fluoro-5-(trifluoromethyl)benzyl)-5-methyl-4,5-dihydro-1H-1,2,4-triazol-1-yl)-2-methylbenzamide

Chain of recombinant human GPR52 (Q9Y2T5 whole entry): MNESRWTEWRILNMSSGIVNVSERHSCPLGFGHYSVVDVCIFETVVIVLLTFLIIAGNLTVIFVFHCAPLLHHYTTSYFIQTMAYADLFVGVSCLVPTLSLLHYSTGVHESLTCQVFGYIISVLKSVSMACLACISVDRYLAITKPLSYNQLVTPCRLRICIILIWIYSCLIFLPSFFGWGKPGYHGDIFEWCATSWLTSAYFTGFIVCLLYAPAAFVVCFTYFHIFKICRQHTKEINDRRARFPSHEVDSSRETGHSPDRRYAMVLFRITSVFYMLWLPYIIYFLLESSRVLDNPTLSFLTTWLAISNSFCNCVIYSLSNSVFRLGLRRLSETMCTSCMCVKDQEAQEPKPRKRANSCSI

SMILES	EC50 [1] [nM]	Emax [2] [%]	also measured
Cc1cnc(-c2ccc(C(N)=O)c(C)c2)cc1Oc1ccc2cnn(C)c2c1 [Example 50, 2-methyl-4-(5-methyl-4-((1-methyl-1H-indazol-6-yl)oxy)pyridin-2-yl)benzamide]	101 to 1000	78	
Cc1cc(-c2cc(Oc3cnc4c(F)cc(F)cc4c3)ccn2)ccc1C(N)=O [Example 118, 4-(4-((6,8-difluoroquinolin-3-yl)oxy)pyridin-2-yl)-2-methylbenzamide]	101 to 1000	85	
CCc1cc(-c2cc(Oc3cc(C)c4cnn(C)c4c3)ccn2)ccc1C(N)=O [Example 46, 4-(4-((1,4-dimethyl-1H-indazol-6-yl)oxy)pyridin-2-yl)-2-ethylbenzamide]	101 to 1000	63	
CCc1cc(-c2cc(Oc3cnc4c(c3)c(C)nn4C)cc3nccn23)ccc1C(N)=O [Example 78, 4-(7-((1,3-dimethyl-1H-pyrazolo[3,4-b]pyridin-5-yl)oxy)imidazo[1,2-a]pyridin-5-yl)-2-ethylbenzamide]	101 to 1000	94	
Cc1cc(-c2cc(Oc3ccc4c(cnn4C)c3)ccn2)ccc1C(N)=O [Example 5, 2-methyl-4-(4-((1-methyl-1H-indazol-5-yl)oxy)pyridin-2-yl)benzamide]	101 to 1000	76	
Cc1nn(C)c2cc(Oc3ccnc(-c4ccc(C(N)=O)c(C(F)(F)F)c4)c3)ccc12 [Example 42, 4-(4-((1,3-dimethyl-1H-indazol-6-yl)oxy)pyridin-2-yl)-2-(trifluoromethyl)benzamide]	101 to 1000	83	
CCc1cc(-c2cc(Oc3cnc4c(C)nn(C)c4c3)cc3nccn23)ccc1C(N)=O [Example 81, 4-(7-((1,3-dimethyl-1H-pyrazolo[4,3-b]pyridin-6-yl)oxy)imidazo[1,2-a]pyridin-5-yl)-2-ethylbenzamide]	101 to 1000	76	
CCc1cc(-c2cccc(Oc3cnc4c(C)nn(C)c4c3)c2)ccc1C(N)=O [Example 32, 3′-((1,3-dimethyl-1H-pyrazolo[4,3-b]pyridin-6-yl)oxy)-3-ethyl-[1,1′-biphenyl]-4-carboxamide]	101 to 1000	103	
CCc1cc(-c2cc(Oc3cnc4c(F)c(F)ccc4c3)ccn2)ccc1C(N)=O [Example 115, 4-(4-((7,8-difluoroquinolin-3-yl)oxy)pyridin-2-yl)-2-ethylbenzamide]	101 to 1000	100	
CCc1cc(-c2cc(Oc3ccc4cnn(C)c4c3)cc3nccn23)ccc1C(N)=O [Example 26, 2-ethyl-4-(7-((1-methyl-1H-indazol-6-yl)oxy)imidazo[1,2-a]pyridin-5-yl)benzamide]	25 to 100	75	
NC(=O)c1ccc(-c2cc(Oc3ccc4ncccc4c3)ccn2)cc1Cl [Example 76, 2-chloro-4-(4-(quinolin-6-yloxy)pyridin-2-yl)benzamide]	101 to 1000	91	
CCc1cc(-c2cc(Oc3ccc4cnn(C)c4c3)cc(N)n2)ccc1C(N)=O [Example 18, 4-(6-amino-4-((1-methyl-1H-indazol-6-yl)oxy)pyridin-2-yl)-2-ethylbenzamide]	101 to 1000	107	
CCc1cc(-c2cc(Oc3ccc4ncc(C)cc4c3)ccn2)ccc1C(N)=O [Example 107, 2-ethyl-4-(4-((3-methylquinolin-6-yl)oxy)pyridin-2-yl)benzamide]	25 to 100	146	
CCc1cc(-c2cc(Oc3cnc4c(C(F)(F)F)nn(C)c4c3)ccn2)ccc1C(N)=O [Example 29, 2-ethyl-4-(4-((1-methyl-3-(trifluoromethyl)-1H-pyrazolo[4,3-b]pyridin-6-yl)oxy)pyridin-2-yl)benzamide]	101 to 1000	84	
Cc1cc(-c2cc(Oc3cc(F)c4cnn(C)c4c3)ccn2)ccc1C(N)=O [Example 39, 4-(4-((4-fluoro-1-methyl-1H-indazol-6-yl)oxy)pyridin-2-yl)-2-methylbenzamide]	25 to 100	104	
CCc1cc(-c2cccc(Oc3ccc4cnn(C)c4c3)c2)ccc1C(N)=O [Example 52, 3-ethyl-3′-((1-methyl-1H-indazol-6-yl)oxy)-[1,1′-biphenyl]-4-carboxamide]	1000 to 2000	86	
CCc1cc(-c2cc(Oc3ccc4c(F)nn(C)c4c3)ccn2)ccc1C(N)=O [Example 132, 2-ethyl-4-(4-((3-fluoro-1-methyl-1H-indazol-6-yl)oxy)pyridin-2-yl)benzamide]	25 to 100	110	

SMILES	EC50 [1] [nM]	Emax [2] [%]	also measured
Cn1ncc2ccc(Oc3ccnc(-c4ccc(C(N)=O)c(Cl)c4)c3)cc21 [Example 45, 2-chloro-4-(4-((1-methyl-1H-indazol-6-yl)oxy)pyridin-2-yl)benzamide]	101 to 1000	88	
Cc1cc(-c2nccc(Oc3ccc4cnn(C)c4c3)n2)ccc1C(N)=O [Example 14, 2-methyl-4-(4-((1-methyl-1H-indazol-6-yl)oxy)pyrimidin-2-yl)benzamide]	101 to 1000	93	
CCc1cc(-c2cc(Oc3cnc4c(c3)C=C(F)CC4)ccn2)ccc1C(N)=O [Example 122, 2-ethyl-4-(4-((6-fluoro-7,8-dihydroquinolin-3-yl)oxy)pyridin-2-yl)benzamide]	101 to 1000	121	
Cc1cc(-c2cc(Oc3ccc4c(c3)c(C)nn4C)ccn2)ccc1C(N)=O [drawing 5]			EC50 (comparison of position of the nitrogen in the pyridine ring relative to the oxygen linker, read-out: Activity EC50): 89 nM
Cc1cc(-c2cc(Oc3ccc4ncc(F)cc4c3)ccn2)ccc1C(N)=O [Example 96, 4-(4-((3-fluoroquinolin-6-yl)oxy)pyridin-2-yl)-2-methylbenzamide]	101 to 1000	120	
CCc1cc(-c2cc(Oc3ccc4cnn(C)c4c3)ccn2)ccc1C(=O)NC [Example 59, 2-ethyl-N-methyl-4-(4-((1-methyl-1H-indazol-6-yl)oxy)pyridin-2-yl)benzamide]	101 to 1000	95	
CCc1cc(-c2cc(Oc3cnc4c(F)cc(F)cc4c3)ccn2)ccc1C(N)=O [Example 117, 4-(4-((6,8-difluoroquinolin-3-yl)oxy)pyridin-2-yl)-2-ethylbenzamide]	101 to 1000	115	
Cc1cc(-c2cc(Oc3cnc4c(F)cccc4c3)ccn2)ccc1C(N)=O [Example 103, 4-(4-((8-fluoroquinolin-3-yl)oxy)pyridin-2-yl)-2-methylbenzamide]	101 to 1000	60	
CCc1cc(-c2cc(Oc3cnc4cnn(C)c4c3)cc(N)n2)ccc1C(N)=O [Example 17, 4-(6-amino-4-((1-methyl-1H-pyrazolo[4,3-b]pyridin-6-yl)oxy)pyridin-2-yl)-2-ethylbenzamide]	101 to 1000	102	
CCc1cc(-c2cc(Oc3cc(F)c4ncc(F)cc4c3)ccn2)ccc1C(N)=O [Example 120, 4-(4-((3,8-difluoroquinolin-6-yl)oxy)pyridin-2-yl)-2-ethylbenzamide]	101 to 1000	155	
Cc1cc(-c2cccc(Oc3ccc4cnn(C)c4c3)n2)ccc1C(N)=O [Example 9, 2-methyl-4-(6-((1-methyl-1H-indazol-6-yl)oxy)pyridin-2-yl)benzamide]	1000 to 2000	91	
CCc1cc(-c2cc(Oc3ccc4cnccc4c3)ccn2)ccc1C(N)=O [Example 71, 2-ethyl-4-(4-(isoquinolin-6-yloxy)pyridin-2-yl)benzamide]	25 to 100	107	
CCn1ncc2ccc(Oc3ccnc(-c4ccc(C(N)=O)c(C)c4)c3)cc21 [Example 44, 4-(4-((1-ethyl-1H-indazol-6-yl)oxy)pyridin-2-yl)-2-methylbenzamide]	101 to 1000	91	
Cc1cc(-c2cc(Oc3cc(F)c4ncc(F)cc4c3)ccn2)ccc1C(N)=O [Example 119, 4-(4-((3,8-difluoroquinolin-6-yl)oxy)pyridin-2-yl)-2-methylbenzamide]	101 to 1000	120	
Cc1cc(-c2cc(Oc3ccc4c(C)nn(C)c4c3)ccn2)ccc1C(N)=O [Example 4, 4-(4-((1,3-dimethyl-1H-indazol-6-yl)oxy)pyridin-2-yl)-2-methylbenzamide]	25 to 100		EC50 (Flp-In-CHO cells expressing human GPR52, read-out: average EC50): 83 nM; Emax (%) [2]: 103%; Emax (percentage of Emax of control compound): 106%
Cc1cc(-c2cc(Oc3cnc4c(c3)c(C)nn4C)cc(N)n2)ccc1C(N)=O [Example 23, 4-(6-amino-4-((1,3-dimethyl-1H-pyrazolo[3,4-b]pyridin-5-yl)oxy)pyridin-2-yl)-2-methylbenzamide]	101 to 1000	107	
